Article PMC10897476, “Pyridylpiperazine efflux pump inhibitor boosts in vivo antibiotic efficacy against K. pneumoniae” (EMBO Molecular Medicine, 2023)
Values joined by “and” are separate entries in the source; they are usually repeats but may differ in a detail not shown here. Equal values may be shown once.

Assays:
Assay type in all cases: cell-based, Klebsiella pneumoniae
[1] = tested on: K. pneumoniae ATCC 43816 (WT); test: Checkerboard assay levofloxacin x EPI, WT strain; settings: for checkerboard growth readout: ATCC43816 WT, levofloxacin 0 ng/mL; for percentage resazurin turnover: individual replicates, listed as BDM91288; for Median REMA values (percentage resazurin turnover): median n=3
Method: (§1) MIC experiments were carried out according to the CLSI guidelines (CLSI [2023]). Overnight cultures were diluted to an OD600 = 0.001 in CAMHB followed by addition of efflux pump inhibitors (EPIs) at a final concentration of 100 µM. […] Plates were incubated at 37 °C for up to 20 h. Bacterial viability was evaluated using the resazurin microtitre assay (REMA) and measured by fluorescence using a Tecan Spaert multimode plate reader (Ex: 530 nm Em: 590 nm). MICs were defined as the concentration that prevented 90% of resazurin turnover compared to the non-treated bacteria.
(§2) Bacterial suspensions, incubation and plate readouts were carried out as described above.

K. pneumoniae AcrB^V448E [2] = test: Checkerboard assay levofloxacin x EPI, AcrB V448E mutant; settings: for checkerboard growth readout: ATCC43816 AcrBV448E, levofloxacin 0 ng/mL; for Median REMA values / percentage resazurin turnover: Lev 0.00 ng/mL
Method: as §1, §2

[3] = tested on: K. pneumoniae RamR^mut (K124*stop); test: Checkerboard assay levofloxacin x EPI, RamR mutant; settings: for checkerboard growth readout: ATCC43816 ramRmut, levofloxacin 0 ng/mL
Method: as §1, §2

K. pneumoniae AcrB^V448E [4] = test: MIC of antibiotics with and without EPI (REMA), AcrB V448E mutant; settings: K. pneumoniae-AcrB^V448E, Table 2
Procedure, shortened: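 K. pneumoniae ATCC 43816 carrying single chromosomal acrB or ramR mutations introduced by allelic exchange, diluted to OD600 = 0.001 in CAMHB with EPI at final 100 µM. Incubated 37 °C up to 20 h; viability by resazurin fluorescence (Ex 530/Em 590 nm).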

[5] = tested on: K. pneumoniae AcrB^V448E RamR^mut; test: Checkerboard assay levofloxacin x EPI, double mutant; parameters: checkerboard growth readout: unit not given here; settings: for checkerboard growth readout: ATCC43816 AcrBV448E ramRmut, levofloxacin 0 ng/mL
Method: as §1, §2

With Clc1cc2cc(N3CCNCC3)ccc2nc1N1CCNCC1 [compound 5] the checkerboard growth readout ([1]; EPI 2.3 µM) was 105, the checkerboard growth readout ([1]; EPI 4.7 µM) was 106 and the checkerboard growth readout ([1]; EPI 9.4 µM) was 97. For the same molecule, the checkerboard growth readout ([1]; EPI 19 µM) was 85, the checkerboard growth readout ([1]; EPI 38 µM) was 109 and the checkerboard growth readout ([1]; EPI 75 µM) was 121. The checkerboard growth readout ([1]; EPI 150 µM) was 118, the checkerboard growth readout ([1]; EPI 300 µM) was 87 and the “maximal boosting of levofloxacin activity (decrease of MIC)” value ([1]; K. pneumoniae WT (ATCC 43816), at 38 µM BDM91288) was 4 fold. For the same molecule, the “concentration needed for efficacy in vitro (boosting levofloxacin activity)” value ([1]; K. pneumoniae WT, Fig. 2) was 9 to 38 µM, the percentage resazurin turnover ([1]; Lev 0.00 ng/mL + EPI 2.34 uM) was 110% and 85% and 105% and the “Median REMA values (percentage resazurin turnover)” value ([1]; Lev 0.00 ng/mL + EPI 2.34 uM) was 105%. For the same molecule, the percentage resazurin turnover ([1]; Lev 0.00 ng/mL + EPI 4.69 uM) was 106% and 98% and 117%, the “Median REMA values (percentage resazurin turnover)” value ([1]; Lev 0.00 ng/mL + EPI 4.69 uM) was 106% and the percentage resazurin turnover ([1]; Lev 0.00 ng/mL + EPI 9.38 uM) was 97% and 89% and 110%. For the same molecule, the “Median REMA values (percentage resazurin turnover)” value ([1]; Lev 0.00 ng/mL + EPI 9.38 uM) was 97%, the percentage resazurin turnover ([1]; Lev 0.00 ng/mL + EPI 18.75 uM) was 66% and 85% and 116% and the “Median REMA values (percentage resazurin turnover)” value ([1]; Lev 0.00 ng/mL + EPI 18.75 uM) was 85%. For the same molecule, the percentage resazurin turnover ([1]; Lev 0.00 ng/mL + EPI 37.50 uM) was 112% and 98% and 109%, the “Median REMA values (percentage resazurin turnover)” value ([1]; Lev 0.00 ng/mL + EPI 37.50 uM) was 109% and the percentage resazurin turnover ([1]; Lev 0.00 ng/mL + EPI 75.00 uM) was 89% and 138% and 121%. For the same molecule, the “Median REMA values (percentage resazurin turnover)” value ([1]; Lev 0.00 ng/mL + EPI 75.00 uM) was 121%, the percentage resazurin turnover ([1]; Lev 0.00 ng/mL + EPI 150.00 uM) was 94% and 132% and 118% and the “Median REMA values (percentage resazurin turnover)” value ([1]; Lev 0.00 ng/mL + EPI 150.00 uM) was 118%. For the same molecule, the percentage resazurin turnover ([1]; Lev 0.00 ng/mL + EPI 300 uM) was 107% and 80% and 87%, the “Median REMA values (percentage resazurin turnover)” value ([1]; Lev 0.00 ng/mL + EPI 300 uM) was 87% and the “concentration at which boosting of levofloxacin activity starts” value ([1]; parental K. pneumoniae strain, checkerboard) was “around 9 µM”. The checkerboard growth readout (K. pneumoniae AcrB^V448E [2]; EPI 2.3 µM) was 105, the checkerboard growth readout (K. pneumoniae AcrB^V448E [2]; EPI 4.7 µM) was 99 and the checkerboard growth readout (K. pneumoniae AcrB^V448E [2]; EPI 9.4 µM) was 105. For the same molecule, the checkerboard growth readout (K. pneumoniae AcrB^V448E [2]; EPI 19 µM) was 100, the checkerboard growth readout (K. pneumoniae AcrB^V448E [2]; EPI 38 µM) was 109 and the checkerboard growth readout (K. pneumoniae AcrB^V448E [2]; EPI 75 µM) was 118. For the same molecule, the checkerboard growth readout (K. pneumoniae AcrB^V448E [2]; EPI 150 µM) was 109, the checkerboard growth readout (K. pneumoniae AcrB^V448E [2]; EPI 300 µM) was 93 and the “boosting of levofloxacin activity, in words” value (K. pneumoniae AcrB^V448E [2]; K. pneumoniae AcrB^V448E) was “boosting was no longer observed”. For the same molecule, the “Median REMA values” (K. pneumoniae AcrB^V448E [2]; BDM91288 2.34 uM) was 105%, the percentage resazurin turnover (K. pneumoniae AcrB^V448E [2]; BDM91288 2.34 uM) was 105% and 87% and 109% and the “Median REMA values” (K. pneumoniae AcrB^V448E [2]; BDM91288 4.69 uM) was 99%. The percentage resazurin turnover (K. pneumoniae AcrB^V448E [2]; BDM91288 4.69 uM) was 99% and 89% and 111%, the “Median REMA values” (K. pneumoniae AcrB^V448E [2]; BDM91288 9.38 uM) was 105% and the percentage resazurin turnover (K. pneumoniae AcrB^V448E [2]; BDM91288 9.38 uM) was 105% and 90% and 114%. For the same molecule, the “Median REMA values” (K. pneumoniae AcrB^V448E [2]; BDM91288 18.75 uM) was 100%, the percentage resazurin turnover (K. pneumoniae AcrB^V448E [2]; BDM91288 18.75 uM) was 100% and 93% and 138% and the “Median REMA values” (K. pneumoniae AcrB^V448E [2]; BDM91288 37.50 uM) was 109%. For the same molecule, the percentage resazurin turnover (K. pneumoniae AcrB^V448E [2]; BDM91288 37.50 uM) was 99% and 109% and 157%, the “Median REMA values” (K. pneumoniae AcrB^V448E [2]; BDM91288 75.00 uM) was 118% and the percentage resazurin turnover (K. pneumoniae AcrB^V448E [2]; BDM91288 75.00 uM) was 124% and 117% and 118%. For the same molecule, the “Median REMA values” (K. pneumoniae AcrB^V448E [2]; BDM91288 150.00 uM) was 109%, the percentage resazurin turnover (K. pneumoniae AcrB^V448E [2]; BDM91288 150.00 uM) was 109% and 152% and 108% and the “Median REMA values” (K. pneumoniae AcrB^V448E [2]; BDM91288 300 uM) was 93%. The percentage resazurin turnover (K. pneumoniae AcrB^V448E [2]; BDM91288 300 uM) was 114% and 93% and 89%, the checkerboard growth readout ([3]; EPI 2.3 µM) was 90 and the checkerboard growth readout ([3]; EPI 4.7 µM) was 91. The checkerboard growth readout ([3]; EPI 9.4 µM) was 93, the checkerboard growth readout ([3]; EPI 19 µM) was 96 and the checkerboard growth readout ([3]; EPI 38 µM) was 124. It also gave a checkerboard growth readout ([3]; EPI 75 µM) of 151, a checkerboard growth readout ([3]; EPI 150 µM) of 151 and a checkerboard growth readout ([3]; EPI 300 µM) of 103. The “reversion of RamR-mediated levofloxacin resistance, in words” value ([3]; K. pneumoniae RamR^mut) was “completely reverted”, the “susceptibility of the strain to antibiotic boosting by the EPI, in words” value (K. pneumoniae AcrB^V448E [4]) was “resistant” and the checkerboard growth readout ([5]; EPI 2.3 µM) was 87. It also gave a checkerboard growth readout ([5]; EPI 4.7 µM) of 75, a checkerboard growth readout ([5]; EPI 9.4 µM) of 86 and a checkerboard growth readout ([5]; EPI 19 µM) of 93. For the same molecule, the checkerboard growth readout ([5]; EPI 38 µM) was 98, the checkerboard growth readout ([5]; EPI 75 µM) was 128 and the checkerboard growth readout ([5]; EPI 150 µM) was 153. The checkerboard growth readout ([5]; EPI 300 µM) was 136 and the “modulation of levofloxacin MIC, in words” value ([5]; K. pneumoniae AcrB^V448E RamR^mut) was “No modulation”.
